Laboratory results from the Deep4Chem optical property database.
Several values for one entry are separate records, joined by “and”; a condition that tells them apart may be missing. Equal entries are not always repeated. Each block holds one molecule with its values, some of them ahead of it.

Test: solvent given as SMILES

Compound: F[B-]1(F)n2cccc2C=C2c3ccccc3C(c3ccc[nH]3)=[N+]21
emission maximum (in C1CCOC1): 596 nm | emission maximum (in CC#N): 594 nm | emission maximum (in CCCCCC): 588 nm | emission maximum (in CO): 592 nm | emission maximum (in Cc1ccccc1): 600 nm | emission maximum (in ClCCl): 599 nm

Compound: Cc1ccc(-c2cc(/C=C/c3ccc(N(c4ccccc4)c4ccccc4)cc3)c(-c3ccc(C)cc3)cc2/C=C/c2ccc(N(c3ccccc3)c3ccccc3)cc2)cc1
emission maximum (in ClCCl): 492 nm

Compound: O=C1Nc2ccccc2/C1=C/C(=O)c1ccc(O)cc1
emission maximum (in C1CCCCC1): 384 nm | emission maximum (in C1COCCO1): 399 nm | emission maximum (in CC#N): 401 nm | emission maximum (in CC(C)(C)O): 406 nm | emission maximum (in CC(C)O): 407 nm | emission maximum (in CCCCCC): 382 nm | emission maximum (in CCCCO): 407 nm | emission maximum (in CCOC(C)=O): 398 nm | emission maximum (in CN(C)C=O): 401 nm | emission maximum (in CO): 408 nm | emission maximum (in ClCCl): 400 nm | emission maximum (in O): 424 nm

Compound: CCCCCCc1ccc(-n2c3c4cccc(OC)c4nc(-c4ccc(C)cc4)c3c3c2c2c(-c4ccc(C)cc4)nc4c(OC)cccc4c2n3-c2ccc(CCCCCC)cc2)cc1
emission maximum (in ClC(Cl)Cl): 464 nm

Compound: c1ccc(-n2c(-c3ccc(-c4ccc(-c5ccc(-c6nc7c8ccccc8c8ccccc8c7n6-c6ccccc6)cc5)cc4)cc3)nc3ccccc32)cc1
emission maximum (in C1CCOC1): 435 nm | emission maximum (in C1COCCO1): 414 nm | emission maximum (in CC#N): 447 nm | emission maximum (in CCCCCC): 404 nm | emission maximum (in CCCCOCCCC): 411 nm | emission maximum (in CCN(CC)CC): 409 nm | emission maximum (in CCOC(C)=O): 425 nm | emission maximum (in CCOCC): 427 nm | emission maximum (in CN(C)C=O): 447 nm | emission maximum (in Cc1ccccc1): 413 nm | emission maximum (in ClC(Cl)Cl): 427 nm | emission maximum (in ClC=C(Cl)Cl): 417 nm | emission maximum (in ClCCl): 432 nm

Compound: O=S1(=O)c2ccccc2C2(c3cc(-c4ccc(-n5c6ccccc6c6ccccc65)cc4)ccc3-c3ccc(-c4ccc(-n5c6ccccc6c6ccccc65)cc4)cc32)c2ccccc21
emission maximum (in ClCCl): 427 nm | emission maximum (in c1cc(-n2c3ccccc3c3ccccc32)cc(-n2c3ccccc3c3ccccc32)c1): 412 nm

Compound: O=S1c2ccccc2-c2cc(-c3c4ccccc4cc4ccccc34)ccc21 (stereo not given)
emission maximum (in C1CCCCC1): 401.88 nm | emission maximum (in CC#N): 504.43 nm | emission maximum (in ClCCl): 444.61 nm

Compound: F[B-]1(F)n2cccc2C(c2c3ccccc3c(-c3ccccc3)c3ccccc23)=C2C=CC=[N+]21
emission maximum (in CC#N): 524 nm | emission maximum (in CCCCCC): 564 nm | emission maximum (in CCO): 522 nm | emission maximum (in CN(C)C=O): 526 nm | emission maximum (in Cc1ccccc1): 529 nm | emission maximum (in ClCCl): 526 nm

Compound: CCN(CC)c1ccc2cc(-c3ccc(C(F)(F)F)cc3)oc(=O)c2c1
emission maximum (in CC(C)=O): 454 nm | emission maximum (in CCCCCC): 418 nm | emission maximum (in CCCCO): 468 nm | emission maximum (in CCCO): 470 nm | emission maximum (in CCO): 471 nm | emission maximum (in CCOC(C)=O): 443 nm | emission maximum (in CN(C)C=O): 462 nm | emission maximum (in CO): 475 nm | emission maximum (in ClC(Cl)Cl): 450 nm

Compound: Cc1ccc(-n2c(-c3ccccc3[N-]S(=O)(=O)c3ccc(C)cc3)[nH+]c3c4ccccc4c4ccccc4c32)cc1
emission maximum (in Cc1ccccc1): 506 nm

Compound: C1=C(c2ccccc2)C=C(c2ccccc2)/C1=C/c1cccc(Oc2ccccc2)c1
emission maximum (in C1CCOC1): 506 nm

Compound: F[B-]1(F)OC(c2ccc3ccccc3c2)=CC(c2ccc3ccccc3c2)=[O+]1
emission maximum (in CC#N): 510 nm | emission maximum (in ClC(Cl)(Cl)Cl): 428 nm

Compound: COc1ccc2c3ccc(OC)cc3n(-c3cc(Cl)c([C](c4c(Cl)cc(Cl)cc4Cl)c4c(Cl)cc(Cl)cc4Cl)c(Cl)c3)c2c1
emission maximum (in C1CCCCC1): 638 nm

Compound: N#Cc1ccc(C#Cc2ccccc2C#N)cc1
emission maximum (in ClC(Cl)Cl): 332 nm

Compound: CC1=[N+]2C(=C(c3ccc(N4CCCCC4)cc3)c3ccc(C)n3[B-]2(F)F)C=C1
emission maximum (in C1CCCCC1): 519 nm | emission maximum (in C1CCOC1): 527 nm and 514 nm | emission maximum (in CC#N): 519 nm | emission maximum (in CC(=O)C(C)(C)C): 523 nm | emission maximum (in CC(C)=O): 517 nm | emission maximum (in CCCCCC): 520 nm | emission maximum (in CCOC(C)=O): 518 nm | emission maximum (in CO): 518 nm | emission maximum (in Cc1ccccc1): 593 nm | emission maximum (in ClC(Cl)Cl): 527 nm

Compound: CCn1c2ccccc2c2cc(C#Cc3cc(C#Cc4ccc5c(c4)c4ccccc4n5CC)nc(C#N)n3)ccc21
emission maximum (in C1CCOC1): 495 nm | emission maximum (in CCOC(C)=O): 494 nm | emission maximum (in CN(C)C=O): 557 nm | emission maximum (in Cc1ccccc1): 445 nm | emission maximum (in ClCCl): 510 nm

Compound: COc1ccc(C2=C(c3ccc(OC)cc3)C(C)(C)c3ccccc32)cc1
emission maximum (in C1CCCCC1): 391 nm

Compound: Cc1ccc(-n2c3ccccc3c3cc(C(=C(C#N)C#N)c4ccccc4)ccc32)cc1
emission maximum (in C1CCOC1): 527 nm | emission maximum (in CC#N): 545 nm | emission maximum (in CC(C)=O): 567 nm | emission maximum (in CCOC(C)=O): 540 nm | emission maximum (in CO): 583 nm | emission maximum (in CS(C)=O): 591 nm | emission maximum (in Cc1ccccc1): 517 nm | emission maximum (in ClC(Cl)Cl): 546 nm

Compound: CCCCCCCCCCCCN1C(=O)c2cccc3c(N(Cc4ccccn4)Cc4ccccn4)c4ccccc4c(c23)C1=O
emission maximum (in C1CCOC1): 583 nm | emission maximum (in CCCCCC): 555 nm | emission maximum (in CCO): 597 nm | emission maximum (in Cc1ccccc1): 573 nm | emission maximum (in ClCCl): 587 nm

Compound: Cc1ccc(-c2nc(-c3ccc(C#N)cc3)[nH]c2-c2ccc(C)cc2)cc1
emission maximum (in CO): 447 nm

Compound: COc1ccc(C2=C(c3ccc(F)cc3)C(c3ccccc3)=[N+]3C2=Nc2c(-c4ccc(OC)cc4)c(-c4ccc(F)cc4)c(-c4ccccc4)n2[B-]3(F)F)cc1
emission maximum (in Cc1ccccc1): 692 nm

Compound: c1cc2ccc3ccc(-c4ccc(-c5nnc(-c6ccc(-c7nnc(-c8ccc(-c9ccc%10ccc%11cccc%12ccc9c%10c%11%12)s8)o7)cc6)o5)s4)c4ccc(c1)c2c34
emission maximum (in C1COCCO1): 373 nm | emission maximum (in CC#N): 398 nm | emission maximum (in CC(=O)N(C)C): 373 nm | emission maximum (in CCCCCCCCCCO): 418 nm | emission maximum (in CCCCCCCCO): 393 nm | emission maximum (in CCCCCCO): 394 nm | emission maximum (in CCCCO): 393 nm | emission maximum (in CCO): 393 nm | emission maximum (in CS(C)=O): 374 nm | emission maximum (in Cc1ccccc1): 419 nm | emission maximum (in ClC(Cl)Cl): 373 nm

Compound: Oc1ccc(/N=C/c2ccccc2Oc2ccccc2)cc1
emission maximum (in C1CCCCC1): 410 nm | emission maximum (in C1COCCO1): 414 nm | emission maximum (in CC#N): 424 nm | emission maximum (in CC(C)=O): 423 nm | emission maximum (in CC(C)CO): 410 nm | emission maximum (in CCCCC): 410 nm | emission maximum (in CCCCCC): 428 nm | emission maximum (in CCCCCCCCO): 420 nm | emission maximum (in CCCCCCCO): 413 nm | emission maximum (in CCCCCCO): 413 nm | emission maximum (in CCCCO): 419 nm | emission maximum (in CCCCOC(C)=O): 410 nm | emission maximum (in CCCO): 415 nm | emission maximum (in CCO): 415 nm | emission maximum (in CCOC(C)=O): 412 nm | emission maximum (in CCOCC): 427 nm | emission maximum (in CN(C)C=O): 423 nm | emission maximum (in CO): 415 nm | emission maximum (in CS(C)=O): 418 nm | emission maximum (in Cc1ccccc1): 410 nm | emission maximum (in Cc1ccccc1C): 414 nm | emission maximum (in ClC(Cl)Cl): 415 nm | emission maximum (in ClCCl): 414 nm | emission maximum (in OCCO): 405 nm | emission maximum (in c1ccccc1): 414 nm

Compound: CCCCCCCCOc1ccc(C#Cc2ccc(C#Cc3ccc(OCCCCCCCC)c(OCCCCCCCC)c3)c3nc4c5ccccc5c5ccccc5c4nc23)cc1OCCCCCCCC
emission maximum (in C1CCOC1): 558 nm | emission maximum (in Cc1ccccc1): 541 nm | emission maximum (in ClCCl): 566 nm

Second part, the molecule after the results:

emission maximum (in CS(C)=O): 738 nm
Compound: COc1ccc(-c2c3nc(cc4ccc([nH]4)c(-c4ccc(OC)c(OCCCC(=O)O)c4)c4nc(cc5ccc2[nH]5)CC4)CC3)cc1OCCCC(=O)O

emission maximum (in ClCCl): 406 nm
Compound: CCOc1cccc(-c2nc3c(c4c2-c2ccccc2CC4)-c2ccccc2CC3)c1O

emission maximum (in CCO): 423 nm
Compound: CC(C)Nc1cc2c(cc1F)c(=O)c1cc(F)c(NC(C)C)cc1n2C(C)C

emission maximum (in ClCCl): 666 nm
Compound: COc1ccc(C#Cc2c3cc4ccccc4cc3c(C#C[Si](C(C)C)(C(C)C)C(C)C)c3cc4ccccc4cc23)cc1

emission maximum (in ClCCl): 391 nm
Compound: CC1(C)c2ccccc2-c2cc3c(cc21)c1ccccc1n3-c1ccccc1

emission maximum (in ClCCl): 469 nm
Compound: COc1ccc(-c2cc3c(ccc4sc5ccc6sc(-c7ccc(C#N)cc7)cc6c5c43)s2)cc1

emission maximum (in CCO): 436 nm
Compound: CCOC(=O)c1cc(C(=O)OCC)c2cc(NC(=O)C(F)(F)F)ccc2n1

emission maximum (in ClCCl): 411 nm
Compound: CCCCCCn1c2ccsc2c2sc3c(sc4c5sccc5n(CCCCCC)c43)c21

emission maximum (in ClCCl): 387 nm
Compound: COc1ccc2cc(C#N)c(=N)oc2c1

emission maximum (in C1CCCCC1): 382.09 nm | emission maximum (in C1CCOC1): 384.87 nm | emission maximum (in CC#N): 383.16 nm | emission maximum (in CCCCCC): 381.02 nm | emission maximum (in CCO): 382.73 nm | emission maximum (in CN(C)C=O): 386.79 nm | emission maximum (in CO): 381.87 nm | emission maximum (in ClC(Cl)Cl): 387.93 nm | emission maximum (in ClCCl): 386.36 nm
Compound: CC(C)(C)c1ccc(-c2cc3c4c(c2)CCc2cc(-c5ccc(C(C)(C)C)cc5)cc(c2-4)CC3)cc1

emission maximum (in ClCCl): 552 nm | emission maximum (in c1ccccc1): 514 nm
Compound: CCCCN(CCCC)c1ccc(C#Cc2cc(C#Cc3ccc(N(CCCC)CCCC)cc3)c(C#Cc3cc(C(F)(F)F)cc(C(F)(F)F)c3)cc2C#Cc2cc(C(F)(F)F)cc(C(F)(F)F)c2)cc1

emission maximum (in ClCCl): 548 nm
Compound: [O-][n+]1c(-c2ccccc2)cc(N2CCOCC2)nc1/C=C/c1ccccc1

emission maximum (in ClC(Cl)Cl): 461 nm
Compound: c1ccc(-c2ncc3ccccn23)cc1

emission maximum (in ClCCl): 430 nm
Compound: c1ccc2c(c1)OB1Oc3ccccc3-c3c1c-2c1c2c3-c3ccccc3OB2Oc2ccccc2-1

emission maximum (in O): 485 nm
Compound: O=S(=O)([O-])c1ccc2c([O-])cc(S(=O)(=O)[O-])cc2c1

emission maximum (in ClCCl): 489 nm
Compound: Cc1cc(-c2ccc(C(C)(C)C)cc2)c2nsnc2c1-c1ccc(C(C)(C)C)cc1

emission maximum (in C1CCCCC1): 600 nm | emission maximum (in c1ccccc1): 644 nm
Compound: CN(C)c1ccc2c(c1)C(=O)c1ccccc1-2

emission maximum (in C1CCOC1): 606 nm
Compound: FC(F)(F)C(F)(F)C(F)(F)C1=NC2=C(Sc3ccccc3)C=C3c4cc(Sc5ccccc5)c5nc(C(F)(F)C(F)(F)C(F)(F)F)nc6c(Sc7ccccc7)cc(c4c56)=C4C=C(Sc5ccccc5)C(=N1)C2C34 (stereo not given)

emission maximum (in CO): 489 nm | emission maximum (in ClC(Cl)Cl): 433 nm
Compound: COc1ccc(O)cc1C=O

emission maximum (in CC#N): 308 nm
Compound: Cn1ccc(=O)n(C)c1=O
